Experimental data taken from patent publication US8372409B2, “Dendritic cell binding proteins and uses thereof” (University of Florida Research Foundation, Inc., priority 2003, dated 2013).

Experiments:
[1] = tested on: monocyte-derived DC from rhesus macaque; test: FACS binding of biotinylated DC-peptides to rhesus macaque DC; conditions: FACS (FIG. 1E)
Description: (§1) Peripheral blood mononuclear cells (PBMCs) were isolated from blood of healthy or HCV^+ individuals by Ficoll gradient centrifugation. HCV RNA was detected in the blood of HCV-infected patients by RT-PCR. PBMCs (10^7/well) were seeded in 6-well plates for 2 hrs at 37° C. Subsequently, non-adherent cells were removed by several washes using PBS plus 2% fetal calf serum (FCS) and frozen for autologous MLR experiments. Adherent monocytes were cultured with GM-CSF (100 ng/ml) and IL-4 (10 ng/ml) in complete RPMI for 6 days (6). CD1a^+DR^bright DC were phenotyped by FACS before use. Rhesus macaque or chimpanzees DC were prepared in a parallel fashion by using Hgm-CSF (100 ng/ml) and Hil-4 (50 ng/ml) for six days (15). Mouse DC were prepared from bone marrow of BALB/c mice as described (16). On day six, CD11c^+I-A^+ DC were harvested, phenotyped and used for DC-peptide staining.
(§2) MDC (5×10^5) were incubated with biotinylated peptides (10 μg/ml each) for 1 hr at 4° C. Subsequently, cells were washed, incubated with SA-PE (1:100) for 1 hr, fixed with 0.1% paraformaldehyde and analyzed on a FACSCalibur™ using standard CellQuest software (Becton Dickinson). T cells were analyzed as we described (19). At least 10^4 gated events/condition were acquired for all analyses.
(§3) To test peptide binding specificity, biotinylated peptides #3, #12 and #18 were incubated with CD1a^+DR^bright CD11^bright monocyte-derived human DC, and analyzed by FACS.

[2] = tested on: monocyte-derived DC from chimpanzee; test: FACS binding of biotinylated DC-peptides to chimpanzee DC
Description: as §1, §2, §3

[3] = tested on: CD1a+DRbright CD11bright monocyte-derived human DC; test: FACS binding of biotinylated DC-peptides to human monocyte-derived DC; conditions: for binding to monocyte-derived human DC: biotinylated peptides, FACS and confocal microscopy (FIG. 1A, 1B)
Description: as §1, §2, §3
The cognate ligands for these peptides are unknown. Thus, we next tested whether these peptides bound distinct epitopes. DC presaturated with non-biotinylated peptide no longer bound the corresponding biotinylated peptide (FIG. 2A). […] Thus, the three DC-binding peptides bound distinct, saturable DC surface epitopes.
Biotinylated peptide #3 bound immature DC within 1 hr at 4° C. (FIG. 2D). Staining was decreased over the following 20 hrs at 37° C. (FIG. 2D) consistent with antigen uptake by Dcs (15, 22). […] Peptides bound immature (upper panel) and mature MDC (lower panel) comparably (FIG. 2E), although LPS-mediated maturation appeared to increase peptide binding slightly by inducing a new, minor population of high peptide-binding DC.

[4] = tested on: CD11c+I-A+ DC derived from mouse bone marrow; test: FACS binding of biotinylated DC-peptides to mouse bone marrow derived DC; conditions: FACS (FIG. 1F)
Description: as §1, §2, §3

binding to monocyte-derived DC from rhesus macaque [1] | binding to monocyte-derived DC from chimpanzee [2] | binding to monocyte-derived human DC [3] | binding of 12-mer peptide to DC ([3]; selected from the same panning as negative control) | Sequence | binding to CD11c+I-A+ DC derived from mouse bone marrow [4] | staining of DC over the following 20 hrs ([3]; 37° C., consistent with antigen uptake (FIG. 2D)) | DC viability during peptide incubation ([3]; 20 hrs at 37° C.) | time to binding of immature DC ([3]; biotinylated peptide, 4° C. (FIG. 2D))
specifically bound | specifically bound | bound to DC | – | AYYKTASLAPAE (PEPTIDE peptide specific to myeloid dendritic cells) [compound 12] | did not | – | – | –
– | – | – | did not bind to DC | EPIHPETTFTNN [control peptide, reference compound] | – | – | – | –
specifically bound | specifically bound | bound to DC | – | SLSLLTMPGNAS (PEPTIDE peptide specific to myeloid dendritic cells) [compound 18] | did not | – | – | –

Sequence | binding to monocyte-derived DC from rhesus macaque [1] | binding to monocyte-derived DC from chimpanzee [2] | binding to monocyte-derived human DC [3] | binding of 12-mer peptide to DC ([3]; selected from the same panning as negative control) | binding to CD11c+I-A+ DC derived from mouse bone marrow [4] | staining of DC over the following 20 hrs ([3]; 37° C., consistent with antigen uptake (FIG. 2D)) | DC viability during peptide incubation ([3]; 20 hrs at 37° C.) | time to binding of immature DC ([3]; biotinylated peptide, 4° C. (FIG. 2D))
FYPSYHSTPQRP [peptide #3] | specifically bound | specifically bound | bound to DC | – | bound | decreased | remained viable | ≤ 1 h
